Test results as given in PMC11304990, “Identification of mitochondrial ATP synthase as the cellular target of Ru-polypyridyl-β-carboline complexes by affinity-based protein profiling” (National Science Review, 2024).

Legend:
Ru5-treated cells = experiment: Effect of cell death inhibitors on antiproliferative activity; assay type: cell-based; settings: 24 h
Method: Figure 4. Ru5 induces mitophagy and ferroptosis and inhibits EMT in vitro. (A) TEM images of A549 cells treated with vehicle (1% DMSO) or Ru5 (10 μM, 12 h). Red rectangles represent the region enlarged. Scale bar: 5 μm and 500 nm (enlarged). (B) The morphological examination of mitochondria in A549 cells treated with Ru5 (10 μM) for the indicated time intervals. MTG: λex = 514 nm; λem = 540 ± 20 nm. LTDR: λex = 633 nm; λem = 700 ± 20 nm. Scale bar: 20 μm. (C) Western blotting analysis showing the impact of Ru5 (24 h) on the expression of proteins related to mitochondrial dysfunction and ferroptosis. (D and E) The impact of different inhibitors on antiproliferative activity of Ru5 (24 h). (F) RT-qPCR analysis of EMT-related genes in A549 cells after Ru5 (10 μM, 12 h) treatment. (G) The impact of Ru5 (5 μM) on the migration of A549 cells was measured by a wound healing assay. Scale bar: 100 μm. (H) Quantitative analysis of the impact of Ru5 on wound healing. (I) Selective images of the impact of Ru5 (5 μM, 48 h) on the migration of A549 cells detected by transwell assay. Scale bar: 100 μm. Data are presented as means ± SD from three independent experiments. *P ≤ 0.05, **P ≤ 0.01, ***P ≤ 0.001, by Student's t-test.
We then used different specific inhibitors to further confirm the modes of cell death induced by Ru5. These inhibitors act on autophagy (3-methyladenine, 3-MA, Fig. 4D), ferroptosis (liproxstatin-1, Lip-1, Fig. 4E), necroptosis (necrostatin-1, Nec-1, Fig. S47A) and apoptosis (Z-VAD-FMK, Fig. S47B). The effect of 3-MA on the antiproliferative activity of Ru5 is concentration-dependent, with lower and higher concentrations enhancing and inhibiting the antiproliferative activity of Ru5, respectively. Thus, Ru5 induces cytoprotective autophagy at lower concentrations, while autophagic cell death is induced at higher concentrations. As expected, Lip-1 can relieve the antiproliferative activity of Ru5. However, Nec-1 and Z-VAD-FMK show no effect on the cell viability of Ru5-treated cells.

mitochondria = experiment: Subcellular Ru content by ICP-MS; assay type: cell-based; settings: 20 μM, 12 h
Method: Figure 1. Validation of ATP5F1 as the molecular target of Ru5. (A) Proteins pulled down by streptavidin from A549 cells treated with Ru5a followed by PAL. The cells were treated with Ru5a (50 μM) for 12 h and irradiated with UV light for 20 min. (B) The top five peptides enriched by Ru5a-mediated PAL were identified with the assistance of SILAC-based chemoproteomic studies. H1F0: H1 histone family member 0; HIST4H4: histone cluster 4 H4; HIST3H2BB: histone cluster 3 H2B family member b; ATP5F1E: ATP synthase F1 subunit epsilon; HIST1H2AJ: histone cluster 1 H2A family member J. (C) Pull-down western blotting analysis of ATPase in A549 cells treated with Ru5a. (D) Cellular Ru content in cells treated with Ru5/Ru5a (20 μM, 12 h) measured by ICP-MS. (E) Impact of Ru5/Ru5a (10 μM) on the thermal stability of ATP5F1 measured by CETSA. (F) Impact on the anticancer activities of Ru5/Ru5a against wild type and ATPase knocking down (by siRNA) A549 cells. The relative cellular viability was calculated using the cells without drug treatment in each group as the control group. (G) Inhibition of Ru5/Ru5a on the enzymatic activity of ATPase. (-)-blebbistatin was used as the positive control. (H) Molecular docking of Ru5 with ATPase (PDB: 3ZIA). The red dashes indicate the hydrogen bonds formed between Ru5 and the amino acid residues (SER38 and GLN39). […]

- Subcellular location (cellular Ru content) (mitochondria): mainly located in mitochondria
Compound: F[P-](F)(F)(F)(F)F.F[P-](F)(F)(F)(F)F.[Ru+2].c1ccc2c(c1)[nH]c1c(-c3ncc[nH]3)nccc12.c1cnc2c(c1)ccc1cccnc12.c1cnc2c(c1)ccc1cccnc12 [Ru5]
- Effect of 3-MA (autophagy inhibitor) on antiproliferative activity (Ru5-treated cells): concentration-dependent
- Effect of Lip-1 (ferroptosis inhibitor) on antiproliferative activity (Ru5-treated cells): relieve
- Effect of Nec-1 (necroptosis inhibitor) on cell viability (Ru5-treated cells): no effect
- Effect of Z-VAD-FMK (apoptosis inhibitor) on cell viability (Ru5-treated cells): no effect
